Assay results published in patent US20250213451A1, “AN ORAL CARE COMPOSITION COMPRISING A GLYCOLIPID AND A MILD SURFACTANT” (priority 2021, published 2025).

System: oral tissue cells based on EpiOral Tissue Model
Assay: Oral irritation evaluation, EpiOral Tissue Model
Type: cell-based
Protocol: The oral irritation evaluation was conducted to test the surfactant mildness and oral irritation. The test sample solution was prepared in aqueous solution with 1% active content at pH of 7. The test sample solutions were applied to the oral tissue cells based on EpiOral Tissue Model provided by Mattek Corp. The viability of the cells over time was measured and used to calculate the time of exposure until viability is reduced to 50%, which is indicated by ET-50.

| Molecule | Oral Irritation Classification (aqueous solution with 1% active content at pH of 7, class from ET-50) | ET-50 based on EpiOral Model (aqueous solution with 1% active content at pH of 7, time of exposure until viability is reduced to 50%) | ET-50 based on EpiOral Model (pH 7) | Oral Irritation Classification (pH 7) |
| --- | --- | --- | --- | --- |
| CCCCCCCCCCCCOS(=O)(=O)[O-].[Na+] [Texapon ® OC-N, Sodium Lauryl Sulfate] | Moderately irritation | 116.7 min |  |  |
| Cocamidopropyl Betaine [Dehyton ® PK 45] |  |  | 181.0 min | Mildly irritation |
| PEG-12 [Pluracare ® E-600] |  |  |  | None to minimal irritation |
